Measurements reported in PubChem BioAssay (NCI).
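Results reflect a 48-hour exposure of cells in 96-well plates to compound at five concentrations. Here, GI50 denotes the concentration required for 50% inhibition of growth. TGI: concentration producing complete growth inhibition.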

Key:
Experiment in all cases: growth of human tumour cells (NCI), 48 h; in the data active = GI50 below about 0.43 µM; inactive = the rest
[1] = system: 786-0 renal
[2] = system: A498 renal
[3] = system: A549 NSCLC
[4] = system: ACHN renal
[5] = system: CAKI-1 renal
[6] = system: CCRF-CEM leukemia
[7] = system: COLO 205 colon
[8] = system: DLD-1 colon
[9] = system: DMS 114 small cell lung
[10] = system: DMS 273 small cell lung
[11] = system: EKVX NSCLC
[12] = system: HCC-2998 colon
[13] = system: HCT-116 colon
[14] = system: HCT-15 colon
[15] = system: HL-60(TB) leukemia
[16] = system: HOP-62 NSCLC
[17] = system: HT29 colon
[18] = system: IGROV1 ovarian
[19] = system: K-562 leukemia
[20] = system: KM12 colon
[21] = system: KM20L2 colon
[22] = system: LOX IMVI melanoma
[23] = system: LXFL 529 NSCLC
[24] = system: M14 melanoma
[25] = system: M19-MEL melanoma
[26] = system: MALME-3M melanoma
[27] = system: MOLT-4 leukemia
[28] = system: NCI-H23 lung
[29] = system: NCI-H460 lung
[30] = system: NCI-H522 lung
[31] = system: OVCAR-3 ovarian
[32] = system: OVCAR-4 ovarian
[33] = system: OVCAR-8 ovarian
[34] = system: RPMI-8226 leukemia
[35] = system: RXF 393 renal
[36] = system: SF-268 CNS
[37] = system: SF-295 CNS
[38] = system: SK-MEL-2 melanoma
[39] = system: SK-MEL-28 melanoma
[40] = system: SK-MEL-5 melanoma
[41] = system: SK-OV-3 ovarian
[42] = system: SN12C renal
[43] = system: SNB-19 CNS
[44] = system: SR leukemia
[45] = system: SW-620 colon
[46] = system: TK-10 renal
[47] = system: U251 CNS
[48] = system: UACC-257 melanoma
[49] = system: UACC-62 melanoma
[50] = system: UO-31 renal
[51] = system: XF 498 CNS
[52] = system: HOP-18 NSCLC
[53] = system: HOP-92 NSCLC
[54] = system: NCI-H226 lung
[55] = system: OVCAR-5 ovarian
[56] = system: SF-539 CNS
[57] = system: SNB-75 CNS
[58] = system: SNB-78 CNS

CC(C)=[CH][Sb]([Br])([CH]=C(C)C)([CH]=C(C)C)[c]1ccccc1
45.1 µM: TGI [28]
15.7 µM: TGI [34]
67.3 µM: TGI [31]
90.1 µM: TGI [37]
31 µM: TGI [10]
19.2 µM: TGI [7]
74.6 µM: TGI [41]
82.4 µM: TGI [24]
13.9 µM: TGI [30]
74.2 µM: TGI [47]
21.1 µM: TGI [40]
57.5 µM: TGI [35]
46.3 µM: TGI [9]
23 µM: TGI [19]
86.7 µM: TGI [38]
inactive: GI50 [1] 43.7 µM | GI50 [2] 73 µM | GI50 [3] 16.6 µM | GI50 [4] 36.9 µM | GI50 [5] > 100 µM | GI50 [6] 12.8 µM | GI50 [7] 4.52 µM | GI50 [8] 34 µM | GI50 [9] 13.1 µM | GI50 [10] 3.91 µM | GI50 [11] 3.95 µM | GI50 [12] 27.2 µM | GI50 [13] 13 µM | GI50 [14] > 100 µM | GI50 [15] 3.71 µM | GI50 [16] 43.9 µM | GI50 [17] 20.6 µM | GI50 [18] 16.9 µM | GI50 [19] 11 µM | GI50 [20] 6.74 µM | GI50 [21] 15.9 µM | GI50 [22] 35.4 µM | GI50 [23] 20.3 µM | GI50 [24] 20.6 µM | GI50 [25] 6.14 µM | GI50 [26] 6.07 µM | GI50 [27] 23.9 µM | GI50 [28] 14.4 µM | GI50 [29] 21.6 µM | GI50 [30] 3.32 µM | GI50 [31] 4.32 µM | GI50 [32] 49.3 µM | GI50 [33] 29.6 µM | GI50 [34] 2.12 µM | GI50 [35] 11.4 µM | GI50 [36] 14.5 µM | GI50 [37] 20.2 µM | GI50 [38] 26 µM | GI50 [39] 17.3 µM | GI50 [40] 4.27 µM | GI50 [41] 23 µM | GI50 [42] 25.4 µM | GI50 [43] 8.95 µM | GI50 [44] 18.7 µM | GI50 [45] 32.6 µM | GI50 [46] 34.9 µM | GI50 [47] 16.3 µM | GI50 [48] 6.35 µM | GI50 [49] 16 µM | GI50 [50] 23.2 µM | GI50 [51] 24.3 µM
47.2 µM: TGI [13]
15.6 µM: TGI [15]
46.6 µM: TGI [6]
58.2 µM: TGI [36]
97.2 µM: TGI [49]
79 µM: TGI [43]
> 100 µM: TGI [1] | TGI [2] | TGI [3] | TGI [4] | TGI [5] | TGI [8] | TGI [11] | TGI [12] | TGI [14] | TGI [16] | TGI [17] | TGI [18] | TGI [20] | TGI [21] | TGI [22] | TGI [23] | TGI [25] | TGI [26] | TGI [27] | TGI [29] | TGI [32] | TGI [33] | TGI [39] | TGI [42] | TGI [44] | TGI [45] | TGI [46] | TGI [48] | TGI [50] | TGI [51]

CCCCCCCCCCCCCCCC/C(C(=O)OC)=C(/O)C(=O)OCC
84.9 µM: TGI [53]
> 100 µM: TGI [1] | TGI [2] | TGI [3] | TGI [4] | TGI [5] | TGI [6] | TGI [7] | TGI [8] | TGI [9] | TGI [10] | TGI [12] | TGI [13] | TGI [14] | TGI [15] | TGI [52] | TGI [16] | TGI [17] | TGI [18] | TGI [19] | TGI [20] | TGI [21] | TGI [22] | TGI [23] | TGI [24] | TGI [25] | TGI [26] | TGI [27] | TGI [54] | TGI [28] | TGI [29] | TGI [30] | TGI [31] | TGI [32] | TGI [55] | TGI [33] | TGI [34] | TGI [35] | TGI [36] | TGI [37] | TGI [56] | TGI [38] | TGI [39] | TGI [40] | TGI [41] | TGI [42] | TGI [43] | TGI [57] | TGI [58] | TGI [44] | TGI [45] | TGI [46] | TGI [47] | TGI [48] | TGI [49] | TGI [50]
